Experiment: Inhibition of RSK2 in human MOLM-13 assessed as reduction in cell viability measured after 72 hrs by MTS assay

`CC(C)CCn1ccc2cnc(Nc3cc(F)c(O)c(F)c3)nc21` and `CC(C)CCn1cnc2cnc(Nc3cc(F)c(O)c(F)c3)nc21` are within 1.5-fold of each other in EC50: 1300 nM for the first, 970 nM for the second.

Going from `Oc1c(F)cc(Nc2ncc3ncn(-c4ccc(CCN5CCOCC5)cc4)c3n2)cc1F` to `COC(=O)CCCc1ccc(-n2cnc3cnc(Nc4cc(F)c(O)c(F)c4)nc32)cc1`, the EC50 rises from 1900 nM to 13900 nM (7.3-fold).

First: Oc1c(F)cc(Nc2ncc3ccn(-c4ccc(N5CCOCC5)cc4)c3n2)cc1F
Second: CN1CCN(c2ccc(-n3ccc4cnc(Nc5cc(F)c(O)c(F)c5)nc43)cc2)CC1
The EC50 of the first is 3.3-fold higher: 230 nM for the first, 70 nM for the second. The second is the more potent here.

From BindingDB's records for doi:10.1016/j.bmc.2021.116220 (University of Colorado Anschutz Medical Campus, 2021)
